Data from patent US11058680B2, “Combinations of opioid/TLR4 antagonists and acetaminophen for use in the treatment of emotional pain and insomnia” (Allodynic Threapeutics, LLC, priority 2016, dated 2021).

Tests used:
Format in all cases: in vivo, human
[1] = Migraine open-label pilot study: side effects (AEs present) at each time point
Method: The majority of the patients remained in the clinic for observation for 2 hours after dosing. […] Headache pain was assessed on a 4-point scale (0=none; 1=mild; 2=moderate; 3=severe). The assessment of photophobia, phonophobia, nausea, and neck/shoulder pain was assessed as present or absent. The assessment of emotional pain was recorded on a 4-point scale (0=none, 1=mild, 2=moderate, 3=severe). The assessment of difficulty sleeping or falling asleep (insomnia) was assessed on a 4-point scale (0=none, 1=mild, 2=moderate, 3=severe) at baseline, for the night before treatment and for the following nights at 24, and 48 hours. Patients recorded side effects severity at each time point. Patients recorded the time of the first rescue medication dose and all additional headache medications used within 48 hours. Patients were required to stay awake to record their assessments in the first 2 hours, sleeping was permitted thereafter. While asleep, assessments were completed according to patients' best estimation. For data analysis, it was assumed that a migraine attack is a unique patient. Patients were asked to specify (yes or no answer) to whether they experienced emotional pain symptoms such as: hurt feelings, sadness, fear, or anger. Patients who replied positively to having emotional pain were asked to specify the cause into one of the following options: relationship, work/school, money/debt, health, or loss/grief.

[2] = tested on: patient with post herpetic neuralgia, chronic lower back pain and anger with spouse; test: Example 8 case study; settings: naltrexone 5 mg/clonidine 0.025 mg twice daily; naltrexone 5 mg twice daily; naltrexone 2.25 mg and acetaminophen 325 mg four times daily
[3] = tested on: insomnia; test: Migraine open-label pilot study: insomnia on 4-point scale, night before vs. night after dosing (insomnia-free, insomnia intensity); settings: for Change in insomnia-free / Change in insomnia-intensity: baseline to night after dosing; for Insomnia-intensity at baseline / Insomnia-intensity at night after dosing: sum of severity of all patients
Method: Sixteen unique patients were enrolled in an open phase pilot study for the acute treatment of migraine attacks, insomnia, and emotional pain. Of the sixteen patients, eleven were evaluated for one migraine attack, one for two attacks, two for four attacks, one for six attacks, and one for fourteen attacks. A total of forty-one […] treatments were evaluated. Patients received a single dose of one of the following treatment options:
The majority of the patients remained in the clinic for observation for 2 hours after dosing. They completed headache diary assessments immediately before and after dosing at time points: 7, 15, and 30 minutes; and 1, 1.5, 2, 3, 6, 12, 24, and 48 hours. Headache pain was assessed on a 4-point scale (0=none; 1=mild; 2=moderate; 3=severe). The assessment of photophobia, phonophobia, nausea, and neck/shoulder pain was assessed as present or absent. The assessment of emotional pain was recorded on a 4-point scale (0=none, 1=mild, 2=moderate, 3=severe). The assessment of difficulty sleeping or falling asleep (insomnia) was assessed on a 4-point scale (0=none, 1=mild, 2=moderate, 3=severe) at baseline, for the night before treatment and for the following nights at 24, and 48 hours. Patients recorded side effects severity at each time point. Patients recorded the time of the first rescue medication dose and all additional headache medications used within 48 hours. Patients were required to stay awake to record their assessments in the first 2 hours, sleeping was permitted thereafter. While asleep, assessments were completed according to patients' best estimation. For data analysis, it was assumed that a migraine attack is a unique patient. Patients were asked to specify (yes or no answer) to whether they experienced emotional pain symptoms such as: hurt feelings, sadness, fear, or anger. Patients who replied positively to having emotional pain were asked to specify the cause into one of the following options: relationship, work/school, money/debt, health, or loss/grief.

[4] = tested on: patient with chronic migraines, lower back pain and anger with spouse; test: Example 9 case study; settings: naltrexone 5 mg twice daily for 14 months
Text: For 30 years they and their retired spouse were always together.

[5] = 48 h, NTX/APAP 2.25 mg/325 mg, NTX 2.25 mg
[6] = 48 h, NTX/APAP 5 mg/325 mg, NTX 5 mg
[7] = NTX/APAP 2.25 mg/325 mg, NTX 2.25 mg
[8] = NTX/APAP 3.25 mg/325 mg, NTX 3.25 mg
[9] = night after dosing, NTX/APAP 2.25 mg/325 mg, NTX 2.25 mg
[10] = night after dosing, NTX/APAP 3.25 mg/325 mg, NTX 3.25 mg
[11] = night after dosing, NTX/APAP 5 mg/325 mg, NTX 5 mg
[12] = night after dosing, NTX/APAP […]325 mg, NTX 1.5 mg
[13] = night after dosing, naltrexone/acetaminophen 2.25 mg/325 mg (N=21), naltrexone 2.25 mg (N=9)

Compound: O=C1CC[C@@]2(O)[C@H]3Cc4ccc(O)c5c4[C@@]2(CCN3CC2CC2)[C@H]1O5 [naltrexone]
- AEs present ([1]; 7 min, NTX/APAP 2.25 mg/325 mg, NTX 2.25 mg): 0 (0)
- AEs present ([1]; 7 min, NTX/APAP 3.25 mg/325 mg, NTX 3.25 mg): 0
- AEs present ([1]; 7 min, NTX/APAP 5 mg/325 mg, NTX 5 mg): 1
- AEs present ([1]; 7 min, all doses combined): 1 (16)
- AEs present ([1]; 15 min, NTX/APAP 2.25 mg/325 mg, NTX 2.25 mg): 1 (11)
- AEs present ([1]; 15 min, NTX/APAP 3.25 mg/325 mg, NTX 3.25 mg): 0
- AEs present ([1]; 15 min, NTX/APAP 5 mg/325 mg, NTX 5 mg): 0
- AEs present ([1]; 15 min, NTX/APAP […]325 mg, NTX 1.5 mg): 0
- AEs present ([1]; 15 min, all doses combined): 2 (13)
- AEs present ([1]; 30 min, NTX/APAP 2.25 mg/325 mg, NTX 2.25 mg): 1 (11)
- AEs present ([1]; 30 min, NTX/APAP 3.25 mg/325 mg, NTX 3.25 mg): 2 (66)
- AEs present ([1]; 30 min, NTX/APAP 5 mg/325 mg, NTX 5 mg): 1 (100)
- AEs present ([1]; 30 min, NTX/APAP […]325 mg, NTX 1.5 mg): 0 (0)
- AEs present ([1]; 30 min, all doses combined): 4 (25)
- AEs present ([1]; 1 h, NTX/APAP 2.25 mg/325 mg, NTX 2.25 mg): 1 (11)
- AEs present ([1]; 1 h, NTX/APAP 3.25 mg/325 mg, NTX 3.25 mg): 1
- AEs present ([1]; 1 h, NTX/APAP 5 mg/325 mg, NTX 5 mg): 1
- AEs present ([1]; 1 h, NTX/APAP […]325 mg, NTX 1.5 mg): 0
- AEs present ([1]; 1 h, all doses combined): 3 (19)
- AEs present ([1]; 90 min, NTX/APAP 2.25 mg/325 mg, NTX 2.25 mg): 0 (0)
- AEs present ([1]; 90 min, NTX/APAP 3.25 mg/325 mg, NTX 3.25 mg): 1 (33)
- AEs present ([1]; 90 min, NTX/APAP 5 mg/325 mg, NTX 5 mg): 1 (100)
- AEs present ([1]; 90 min, NTX/APAP […]325 mg, NTX 1.5 mg): 0 (0)
- AEs present ([1]; 90 min, all doses combined): 2 (13)
- AEs present ([1]; 2 h, NTX/APAP 2.25 mg/325 mg, NTX 2.25 mg): 0 (0)
- AEs present ([1]; 2 h, NTX/APAP 3.25 mg/325 mg, NTX 3.25 mg): 1 (33)
- AEs present ([1]; 2 h, NTX/APAP 5 mg/325 mg, NTX 5 mg): 1
- AEs present ([1]; 2 h, NTX/APAP […]325 mg, NTX 1.5 mg): 0 (0)
- AEs present ([1]; 2 h, combined doses): 2 (13)
- AEs present ([1]; 3 h, NTX/APAP 2.25 mg/325 mg, NTX 2.25 mg): 0 (0)
- AEs present ([1]; 3 h, NTX/APAP 3.25 mg/325 mg, NTX 3.25 mg): 1 (33)
- AEs present ([1]; 3 h, NTX/APAP 5 mg/325 mg, NTX 5 mg): 1
- AEs present ([1]; 3 h, NTX/APAP […]325 mg, NTX 1.5 mg): 0
- AEs present ([1]; 3 h, combined doses): 2 (13)
- AEs present ([1]; 4 h, NTX/APAP 2.25 mg/325 mg, NTX 2.25 mg): 0 (0)
- AEs present ([1]; 4 h, NTX/APAP 3.25 mg/325 mg, NTX 3.25 mg): 1 (33)
- AEs present ([1]; 4 h, NTX/APAP 5 mg/325 mg, NTX 5 mg): 1
- AEs present ([1]; 4 h, NTX/APAP […]325 mg, NTX 1.5 mg): 0
- AEs present ([1]; 4 h, combined doses): 2 (13)
- AEs present ([1]; 6 h, NTX/APAP 2.25 mg/325 mg, NTX 2.25 mg): 0 (0)
- AEs present ([1]; 6 h, NTX/APAP 3.25 mg/325 mg, NTX 3.25 mg): 1 (33)
- AEs present ([1]; 6 h, NTX/APAP 5 mg/325 mg, NTX 5 mg): 1
- AEs present ([1]; 6 h, NTX/APAP […]325 mg, NTX 1.5 mg): 0
- AEs present ([1]; 6 h, combined doses): 2 (13)
- AEs present ([1]; 12 h, NTX/APAP 2.25 mg/325 mg, NTX 2.25 mg): 0 (0)
- AEs present ([1]; 12 h, NTX/APAP 3.25 mg/325 mg, NTX 3.25 mg): 1 (33)
- AEs present ([1]; 12 h, NTX/APAP 5 mg/325 mg, NTX 5 mg): 1
- AEs present ([1]; 12 h, NTX/APAP […]325 mg, NTX 1.5 mg): 0
- AEs present ([1]; 12 h, combined doses): 2 (13)
- AEs present ([1]; 24 h, NTX/APAP 2.25 mg/325 mg, NTX 2.25 mg): 0
- AEs present ([1]; 24 h, NTX/APAP 3.25 mg/325 mg, NTX 3.25 mg): 1 (33)
- AEs present ([1]; 24 h, NTX/APAP 5 mg/325 mg, NTX 5 mg): 1
- AEs present ([1]; 24 h, NTX/APAP […]325 mg, NTX 1.5 mg): 0
- AEs present ([1]; 24 h, combined doses): 2 (13)
- AEs present [1, 5]: 0 (0)
- AEs present ([1]; 48 h, NTX/APAP 3.25 mg/325 mg, NTX 3.25 mg): 1 (33)
- AEs present [1, 6]: 0
- AEs present ([1]; 48 h, NTX/APAP […]325 mg, NTX 1.5 mg): 0
- AEs present ([1]; 48 h, combined doses): 1
- mean average pain intensity [2]: 1.5 /10
- Insomnia-free ([3]; 24 h, combined doses): 11 (69) n (%)
- Insomnia-free ([3]; 24 h time point = night following the day of initial dosing, NTX/APAP 2.25 mg/325 mg, NTX 2.25 mg): 6 (66) n (%)
- Insomnia-free ([3]; 24 h time point = night following the day of initial dosing, NTX/APAP 3.25 mg/325 mg, NTX 3.25 mg): 2 (66) n (%)
- Insomnia-free ([3]; 24 h time point = night following the day of initial dosing, NTX/APAP 5 mg/325 mg, NTX 5 mg): 1 (100) n (%)
- Insomnia-free ([3]; 24 h time point = night following the day of initial dosing, NTX/APAP […]325 mg, NTX 1.5 mg): 2 (66) n (%)
- Insomnia-free [3, 5]: 8 (88) n (%)
- Insomnia-free [3, 6]: 1 (100) n (%)
- Insomnia-free ([3]; 48 h, combined doses): 2 (13) n (%)
- Change in insomnia-free [3, 7]: +2 (22) n (%)
- Change in insomnia-intensity [3, 7]: −10 (−111) n (%)
- Change in insomnia-free [3, 8]: +1 n (%)
- Change in insomnia-intensity [3, 8]: −1 (−50) n (%)
- Change in insomnia-free ([3]; NTX/APAP 5 mg/325 mg, NTX 5 mg): 0 n (%)
- Change in insomnia-intensity ([3]; NTX/APAP 5 mg/325 mg, NTX 5 mg): +2 (+200) n (%)
- Change in insomnia-free ([3]; NTX/APAP […]325 mg, NTX 1.5 mg): 0 n (%)
- Change in insomnia-intensity ([3]; NTX/APAP […]325 mg, NTX 1.5 mg): −2 (−66) n (%)
- Insomnia-free at baseline [3, 7]: 4 (44) n (%)
- Insomnia-free at baseline [3, 8]: 1 n (%)
- Insomnia-free at baseline ([3]; NTX/APAP 5 mg/325 mg, NTX 5 mg): 0 n (%)
- Insomnia-free at baseline ([3]; NTX/APAP […]325 mg, NTX 1.5 mg): 2 n (%)
- Insomnia-free at night after dosing [3, 9]: 6 (66) n (%)
- Insomnia-free at night after dosing [3, 10]: 2 (66) n (%)
- Insomnia-free at night after dosing [3, 11]: 0 n (%)
- Insomnia-free at night after dosing [3, 12]: 2 n (%)
- insomnia intensity change from baseline [3, 13]: −111%
- insomnia-free change from baseline [3, 13]: 22%
- insomnia intensity improved by ([3]; night before vs. night after treatment, naltrexone 2.25 mg (n=9)): 111%
- Insomnia-intensity at baseline [3, 7]: 14 (155) n (%)
- Insomnia-intensity at baseline [3, 8]: 2 n (%)
- Insomnia-intensity at baseline ([3]; NTX/APAP 5 mg/325 mg, NTX 5 mg): 1 n (%)
- Insomnia-intensity at baseline ([3]; NTX/APAP […]325 mg, NTX 1.5 mg): 3 n (%)
- Insomnia-intensity at night after dosing [3, 9]: 4 (44) n (%)
- Insomnia-intensity at night after dosing [3, 10]: 1 n (%)
- Insomnia-intensity at night after dosing [3, 11]: 3 n (%)
- Insomnia-intensity at night after dosing [3, 12]: 1 n (%)
- lower back pain diminished by [4]: 90%
- migraine intensity and frequency lessened by [4]: 90%
